What all share (assay): growth of human tumour cells (NCI), 48 h
Assay [1] has as its system OVCAR-8 ovarian.
In assay [2] the test system is MDA-MB-231 breast.
The subject of assay [3] is OVCAR-3 ovarian.
Assay [4] deals with UO-31 renal.
Assay [5] concerns SR leukemia.
Assay [6] has as its system SK-MEL-2 melanoma.
For assay [7], the system named is NCI-H226 lung.
The test system of assay [8] is SF-268 CNS.
Assay [9] relates to K-562 leukemia.
Assay [10] deals with SN12C renal.

Each structure is given as a SMILES string. Where “and” joins values, the source holds several entries; their conditions need not be identical. Equal values may be shown once.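 Compound exposure: 48 hours, 5 concentrations, 96-well plates. GI50: concentration for 50% inhibition of growth. TGI is the concentration that stops growth completely.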 Where only a bound is given, the exact number is not on record here.

Regarding `C=C1C(=O)O[C@H]2[C@H]1CC/C(Cn1cc(-c3ccc(OC)cc3)nn1)=C\CC[C@@]1(C)O[C@@H]21`, the GI50 in [1] is 2.59 µM; in assay [2], 1.44 µM; in assay [3], 0.569 µM; in assay [4] it was 1.27 µM; in [5], 0.257 µM; in assay [6] it was 1.95 µM. The GI50 in assay [7] is 1.99 µM; in assay [8] it was 2.07 µM; in [9], 1.3 µM; in assay [10], 1.96 µM. The TGI was determined as 7.67 µM in assay [1]; 3.15 µM in assay [2]; 1.8 µM in assay [3]; 2.64 µM in assay [4]; 1.48 µM in assay [5]; 4.61 µM in assay [6]. In addition, the TGI was 4.45 µM in assay [7], 5.23 µM in [8], 6.87 µM in assay [9] and 5.27 µM in assay [10].
As for `CCN(CC)c1ccc(/C=C/c2ccc3cc(C)ccc3[n+]2CC)cc1`, the GI50 in assay [1] was 0.107 µM; in assay [2], 0.215 µM; in assay [3], 0.075 µM; in assay [4] it was 0.691 µM; in [5], 0.09 µM; in assay [6], 0.173 µM. The GI50 in [7] is 0.152 µM; in assay [8], 0.406 µM; in [9], 0.036 µM; in [10], 0.124 µM. Further, the TGI came to 12.6 µM in [1]; 2.16 µM in assay [2]; 0.995 µM in assay [3]; 7.45 µM in [4]; 2.28 µM in assay [5]; 0.71 µM in assay [6]. The TGI came out at 9.85 µM in assay [7], 16.5 µM in assay [8], 13.5 µM in assay [9] and 1.2 µM in [10].
As to `CCN(CC)CCOc1ccc(/C(=C(\Cl)c2ccccc2)c2ccccc2)cc1`, the GI50 in assay [1] is 7 µM and 4.65 µM; in assay [2] it was 1.37 µM and 2.13 µM; in assay [3], 5.24 µM and 3.42 µM; in [4], 0.856 µM and 1.49 µM; in [5], 1.9 µM and 2.3 µM; in [6] it was 3.26 µM and 1.64 µM. The GI50 in [7] is 5.46 µM and 4.01 µM; in assay [8], 5.47 µM and 4.78 µM; in assay [9], 1.55 µM; in [10], 5.28 µM and 4.43 µM. The TGI in [1] was 14.3 µM and 18.6 µM; in [2] it was 5.16 µM and 4.49 µM; in assay [3], 11.4 µM and 15.7 µM; in [4] it was 2.62 µM and 5.9 µM; in assay [5], 9.16 µM and 8.36 µM; in [6], 10.4 µM and 3.7 µM. The TGI in assay [7] is 12.9 µM and 16.3 µM; in [8], 11.9 µM and 19.2 µM; in [9] it was 11.5 µM; in assay [10] it was 11.9 µM and 16.5 µM.
Regarding `C=CC(=O)N1CC2(CCN(c3nc(OC4CCN(CCCOC)CC4)nc4c(OCC(F)(F)F)c(-c5c(C)ccc6[nH]ncc56)c(C5CC5)cc34)CC2)C1`, the GI50 in assay [1] was 3.26 µM; in assay [2], 1.98 µM; in assay [3], 2.37 µM; in assay [4] it was 1.7 µM; in assay [5] it was 1.75 µM; in [6], 2.19 µM. The GI50 in assay [7] was 3.66 µM; in [8], 3.75 µM; in [9], 2.07 µM; in assay [10], 2.36 µM. In addition, the TGI amounted to 17.4 µM in assay [1]; 3.94 µM in assay [2]; 5.28 µM in [3]; 3.13 µM in assay [4]; 4.77 µM in assay [5]; 4.77 µM in assay [6]. The TGI came to 16.5 µM in assay [7], 13.6 µM in [8], 5.84 µM in assay [9] and 5.86 µM in assay [10].
`Oc1c(CN2CCC(N3CCCCC3)CC2)cc(Cc2cc(CN3CCC(N4CCCCC4)CC3)c(O)c3ncccc23)c2cccnc12`: the GI50 in assay [1] is 1.83 µM; in assay [2], 0.329 µM; in assay [3] it was 0.517 µM; in assay [4] it was 1 µM; in assay [5], 0.652 µM; in assay [6], 2.21 µM. In addition, the GI50 in assay [7] is 1.49 µM; in assay [8], 0.537 µM; in [9], 0.617 µM; in assay [10] it was 1.62 µM. Moreover, the TGI in assay [1] worked out at 12.3 µM; in [2] it was 14.4 µM; in assay [3], 10.1 µM; in [4] it was 4.22 µM; in assay [5], 3.74 µM; in assay [6], 7.04 µM. Besides, the TGI in assay [7] turned out to be 4.53 µM; in assay [8], 13.8 µM; in assay [9], 8.81 µM; in assay [10] it was 16 µM.
Take `CC[C@@H]1CN(C)[C@H]2Cc3c([nH]c4ccccc34)C(=O)C[C@H]1C2C(=O)OC` (stereo not given in full): the TGI in assay [1], in [2], in [3], in assay [4], in [5] and in [6] was above 100 µM each time. In addition, the TGI in assay [7], in assay [8], in [9] and in assay [10] was above 100 µM each time.
With `CC(=O)OCCN1c2ccccc2Sc2cnccc21`, the TGI in assay [1], in [2], in assay [3], in assay [4], in assay [5] and in [6] was above 10 µM each time. Further, the TGI in assay [7], in [8], in assay [9] and in assay [10] was above 10 µM throughout.
Consider `O=C(N/N=C/c1ccccc1O)c1ccccc1Nc1ccnc(C(F)(F)F)c1`, for which the GI50 in assay [1] is 0.711 µM; in assay [2], 0.796 µM; in assay [3], 0.45 µM; in [4], 0.291 µM; in [5] it was 0.197 µM; in [6], 3.61 µM. Further, the GI50 in [7] was 1.08 µM; in assay [8], 0.448 µM; in [9], 0.53 µM; in assay [10] it was 0.974 µM. In addition, the TGI was above 37.4 µM in [1]; above 95.4 µM in assay [2]; 22.6 µM in assay [3]; 3.12 µM in assay [4]; above 60.5 µM in assay [6]; 12.1 µM in assay [7]. In addition, the TGI in [8] was above 89.3 µM; in assay [9] it was above 100 µM; in [10], 72.6 µM.
Consider `CCCn1cnc2c(SCc3ccccc3Cl)nc(N)nc21`, for which the GI50 was 15.3 µM in [1]; 11.8 µM in assay [2]; 20.5 µM in assay [3]; 10.8 µM in [4]; 2.23 µM in [5]; 22.6 µM in [6]. Besides, the GI50 in assay [7] was 16.4 µM; in [8], 12.1 µM; in assay [9], 6.55 µM; in assay [10] it was 19.6 µM. The TGI in [1] is above 100 µM; in [2] it was 29.3 µM; in assay [3] it was 79.6 µM; in assay [4] it was 63.5 µM; in [5] it was 14.2 µM; in [6], 50.9 µM. The TGI is above 100 µM in assay [7], 92.7 µM in assay [8], above 100 µM in assay [9] and 95.2 µM in [10].
With `OCc1c[nH]c2ccccc12`, the GI50 in [1] is 29.8 µM; in assay [2] it was 14.7 µM; in assay [3], 20.3 µM; in assay [4] it was 6.29 µM; in assay [5], 30.2 µM; in [6] it was 17.4 µM. Further, the GI50 in assay [7] was 17.4 µM; in assay [8], 33.4 µM; in assay [9], 33.8 µM; in [10], 18.9 µM. The TGI was above 100 µM in assay [1]; 47.7 µM in assay [2]; 49.3 µM in assay [3]; 50.9 µM in assay [4]; 77.4 µM in assay [5]; 32.8 µM in assay [6]. Besides, the TGI in assay [7] was 48.1 µM; in assay [8] it was above 100 µM; in [9], above 100 µM; in [10] it was 39.7 µM.
`FC(F)(F)c1cccc(Nc2nccc(-c3cnn4nc(-c5ccccc5)ccc34)n2)c1`: the GI50 in assay [1] is 6.54 µM; in assay [2], 5.58 µM; in assay [3], 5.24 µM; in assay [4], 10.8 µM; in assay [5] it was 2.15 µM; in assay [7] it was above 25 µM. Besides, the values for the GI50 in [8], in assay [9] and in assay [10] were 10.3 µM, above 16.3 µM and above 13.5 µM, respectively. The TGI in assay [1] was above 18.4 µM; in [2] it was above 20.9 µM; in assay [3], 11 µM; in [4] it was above 23.1 µM; in assay [5] it was above 25 µM; in [7], above 25 µM. The TGI in [8] is above 19.2 µM; in [9] it was above 25 µM; in assay [10], above 25 µM.
Consider `CS(=O)(=O)c1ccc([C@H]2O[C@@H](CO)C[C@]2(O)c2ccc(S(C)(=O)=O)cc2)cc1`, for which the GI50 in assay [1], in assay [2], in assay [3], in assay [4], in assay [5] and in assay [7] was above 100 µM throughout. For the same compound, the GI50 in [8], in [9] and in [10] was above 100 µM each time. Also, the TGI in assay [1], in assay [2], in [3], in assay [4], in [5] and in [7] was above 100 µM each time. Also, the TGI in assay [8], in assay [9] and in [10] was above 100 µM each time.

The values are drawn from PubChem BioAssay (NCI).
